# Measured values published in PubChem BioAssay AID1963836 (Molecular Pharmacology Branch, DTP, NCI, 2024).
# Test system: 857933-349-R-J2-PDC complex spheroid viability
# Assay: Anticancer human tumor 857933-349-R-J2-PDC patient-derived colon adenocarcinoma cell line growth inhibition [POLQ]
# Conditions: for IC50: curve of first compound; for viability, T/C: stronger effect = lower value
# How it was run: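 Patient-derived tumour cells were co-cultured with HUVEC and mesenchymal stem cells as multicellular spheroids at 37 °C. They were treated with POLQ inhibitors (novobiocin, ART-558, RP6685) alone or combined with other agents. Top concentrations were at or near clinical Cmax (otherwise 10 microM; SN-38 at 1 microM), decreasing in half-log steps.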
# [1] = second compound 0.0316 µM, first compound 0.0316 µM
# [2] = second compound 0.0316 µM, first compound 0.1 µM
# [3] = second compound 0.0316 µM, first compound 0.316 µM
# [4] = second compound 0.0316 µM, first compound 1 µM
# [5] = second compound 0.0316 µM, first compound 3.16 µM
# [6] = second compound 0.0316 µM, first compound 10 µM
# [7] = second compound 0.1 µM, first compound 0.0316 µM
# [8] = second compound 0.1 µM, first compound 0.1 µM
# [9] = second compound 0.1 µM, first compound 0.316 µM
# [10] = second compound 0.1 µM, first compound 1 µM
# [11] = second compound 0.1 µM, first compound 3.16 µM
# [12] = second compound 0.1 µM, first compound 10 µM
# [13] = second compound 0.316 µM, first compound 0.0316 µM
# [14] = second compound 0.316 µM, first compound 0.1 µM
# [15] = second compound 0.316 µM, first compound 0.316 µM
# [16] = second compound 0.316 µM, first compound 1 µM
# [17] = second compound 0.316 µM, first compound 3.16 µM
# [18] = second compound 0.316 µM, first compound 10 µM
# [19] = second compound 1 µM, first compound 0.0316 µM
# [20] = second compound 1 µM, first compound 0.1 µM
# [21] = second compound 1 µM, first compound 0.316 µM
# [22] = second compound 1 µM, first compound 1 µM
# [23] = second compound 1 µM, first compound 3.16 µM
# [24] = second compound 1 µM, first compound 10 µM
# [25] = second compound 3.16 µM, first compound 0.0316 µM
# [26] = second compound 3.16 µM, first compound 0.1 µM
# [27] = second compound 3.16 µM, first compound 0.316 µM
# [28] = second compound 3.16 µM, first compound 1 µM
# [29] = second compound 3.16 µM, first compound 3.16 µM
# [30] = second compound 3.16 µM, first compound 10 µM
# [31] = second compound 10 µM, first compound 0.0316 µM
# [32] = second compound 10 µM, first compound 0.1 µM
# [33] = second compound 10 µM, first compound 0.316 µM
# [34] = second compound 10 µM, first compound 1 µM
# [35] = second compound 10 µM, first compound 3.16 µM
# [36] = second compound 10 µM, first compound 10 µM
# [37] = second compound 0.0316 µM, first compound 0.00316 µM
# [38] = second compound 0.0316 µM, first compound 0.01 µM
# [39] = second compound 0.1 µM, first compound 0.00316 µM
# [40] = second compound 0.1 µM, first compound 0.01 µM
# [41] = second compound 0.316 µM, first compound 0.00316 µM
# [42] = second compound 0.316 µM, first compound 0.01 µM
# [43] = second compound 1 µM, first compound 0.00316 µM
# [44] = second compound 1 µM, first compound 0.01 µM
# [45] = second compound 3.16 µM, first compound 0.00316 µM
# [46] = second compound 3.16 µM, first compound 0.01 µM
# [47] = second compound 10 µM, first compound 0.00316 µM
# [48] = second compound 10 µM, first compound 0.01 µM
# 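Further: spheroids exposed to compounds for seven days before readout.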
structure (smiles),measurement,setting,value
CC1COCCN1c1cc(C2(S(C)(=N)=O)CC2)nc(-c2ccnc3[nH]ccc23)n1 (stereo not drawn) + Nc1ccc(C#CCN(C(=O)Cc2ncc(C(F)(F)F)cc2C(F)(F)F)c2ccc(F)cc2)nn1,IC50,second compound 0.0316 µM,6.27 µM
same,IC50,second compound 0.1 µM,7.41 µM
same,IC50,second compound 0.316 µM,6.97 µM
same,IC50,second compound 1 µM,6.44 µM
same,IC50,second compound 3.16 µM,6.95 µM
same,IC50,second compound 10 µM,> 10 µM
same,"viability, T/C",[1],85.9%
same,"viability, T/C",[2],110%
same,"viability, T/C",[3],107%
same,"viability, T/C",[4],81.7%
same,"viability, T/C",[5],60.8%
same,"viability, T/C",[6],43.2%
same,"viability, T/C",[7],95.3%
same,"viability, T/C",[8],104%
same,"viability, T/C",[9],88.8%
same,"viability, T/C",[10],79%
same,"viability, T/C",[11],63.4%
same,"viability, T/C",[12],45.3%
same,"viability, T/C",[13],108%
same,"viability, T/C",[14],107%
same,"viability, T/C",[15],85.4%
same,"viability, T/C",[16],83.2%
same,"viability, T/C",[17],64.2%
same,"viability, T/C",[18],43.2%
same,"viability, T/C",[19],100%
same,"viability, T/C",[20],102%
same,"viability, T/C",[21],90.1%
same,"viability, T/C",[22],74.6%
same,"viability, T/C",[23],57.6%
same,"viability, T/C",[24],45.4%
same,"viability, T/C",[25],96.2%
same,"viability, T/C",[26],88.1%
same,"viability, T/C",[27],89.3%
same,"viability, T/C",[28],84.7%
same,"viability, T/C",[29],59.9%
same,"viability, T/C",[30],45.4%
same,"viability, T/C",[31],96.5%
same,"viability, T/C",[32],91.3%
same,"viability, T/C",[33],93.5%
same,"viability, T/C",[34],71.4%
same,"viability, T/C",[35],71.1%
same,"viability, T/C",[36],49.9%
CCCS(=O)(=O)Nc1ccc(F)c(C(=O)c2c[nH]c3ncc(-c4ccc(Cl)cc4)cc23)c1F + Nc1ccc(C#CCN(C(=O)Cc2ncc(C(F)(F)F)cc2C(F)(F)F)c2ccc(F)cc2)nn1,IC50,second compound 0.0316 µM,6.17 µM
same,IC50,second compound 0.1 µM,6.22 µM
same,IC50,second compound 0.316 µM,5.99 µM
same,IC50,second compound 1 µM,6.43 µM
same,IC50,second compound 3.16 µM,6.48 µM
same,IC50,second compound 10 µM,6.48 µM
same,"viability, T/C",[1],103%
same,"viability, T/C",[2],102%
same,"viability, T/C",[3],102%
same,"viability, T/C",[4],102%
same,"viability, T/C",[5],97.5%
same,"viability, T/C",[6],15.6%
same,"viability, T/C",[7],93.5%
same,"viability, T/C",[8],112%
same,"viability, T/C",[9],88.6%
same,"viability, T/C",[10],104%
same,"viability, T/C",[11],102%
same,"viability, T/C",[12],14.9%
same,"viability, T/C",[13],103%
same,"viability, T/C",[14],89%
same,"viability, T/C",[15],99.6%
same,"viability, T/C",[16],91%
same,"viability, T/C",[17],98.3%
same,"viability, T/C",[18],12.9%
same,"viability, T/C",[19],116%
same,"viability, T/C",[20],93%
same,"viability, T/C",[21],82.1%
same,"viability, T/C",[22],106%
same,"viability, T/C",[23],109%
same,"viability, T/C",[24],17.9%
same,"viability, T/C",[25],77.1%
same,"viability, T/C",[26],97.2%
same,"viability, T/C",[27],99.3%
same,"viability, T/C",[28],96.8%
same,"viability, T/C",[29],99.6%
same,"viability, T/C",[30],23.3%
same,"viability, T/C",[31],97.7%
same,"viability, T/C",[32],90.7%
same,"viability, T/C",[33],93.4%
same,"viability, T/C",[34],86.5%
same,"viability, T/C",[35],92%
same,"viability, T/C",[36],24.6%
COc1cccc(OCCCN)c1-c1cc(Nc2cnc(C#N)cn2)n[nH]1 + Nc1ccc(C#CCN(C(=O)Cc2ncc(C(F)(F)F)cc2C(F)(F)F)c2ccc(F)cc2)nn1,IC50,second compound 0.0316 µM,> 1 µM
same,IC50,second compound 0.1 µM,0.685 µM
same,IC50,second compound 0.316 µM,> 1 µM
same,IC50,second compound 1 µM,0.67 µM
same,IC50,second compound 3.16 µM,> 1 µM
same,IC50,second compound 10 µM,> 1 µM
same,"viability, T/C",[37],101%
same,"viability, T/C",[38],113%
same,"viability, T/C",[1],83.8%
same,"viability, T/C",[2],68.4%
same,"viability, T/C",[3],58.9%
same,"viability, T/C",[4],50.2%
same,"viability, T/C",[39],104%
same,"viability, T/C",[40],107%
same,"viability, T/C",[7],76.9%
same,"viability, T/C",[8],88.8%
same,"viability, T/C",[9],58.2%
same,"viability, T/C",[10],44.3%
same,"viability, T/C",[41],105%
same,"viability, T/C",[42],101%
same,"viability, T/C",[13],88.2%
same,"viability, T/C",[14],62.1%
same,"viability, T/C",[15],57.8%
same,"viability, T/C",[16],54.4%
same,"viability, T/C",[43],109%
same,"viability, T/C",[44],88.5%
same,"viability, T/C",[19],80.5%
same,"viability, T/C",[20],70%
same,"viability, T/C",[21],53.9%
same,"viability, T/C",[22],47.1%
same,"viability, T/C",[45],101%
same,"viability, T/C",[46],96.9%
same,"viability, T/C",[25],81.9%
same,"viability, T/C",[26],66.8%
same,"viability, T/C",[27],51.2%
same,"viability, T/C",[28],54.9%
same,"viability, T/C",[47],86.8%
same,"viability, T/C",[48],102%
same,"viability, T/C",[31],76.9%
same,"viability, T/C",[32],69.8%
same,"viability, T/C",[33],57%
same,"viability, T/C",[34],54%
Cn1ncnc1[C@H]1c2n[nH]c(=O)c3cc(F)cc(c23)N[C@@H]1c1ccc(F)cc1 + Nc1ccc(C#CCN(C(=O)Cc2ncc(C(F)(F)F)cc2C(F)(F)F)c2ccc(F)cc2)nn1,IC50,second compound 0.0316 µM,> 0.1 µM
same,IC50,second compound 0.1 µM,> 0.1 µM
same,IC50,second compound 0.316 µM,> 0.1 µM
same,IC50,second compound 1 µM,> 0.1 µM
same,IC50,second compound 3.16 µM,> 0.1 µM
same,IC50,second compound 10 µM,> 0.1 µM
same,"viability, T/C","second compound 0.0316 µM, first compound 0.000316 µM",90.9%
same,"viability, T/C","second compound 0.0316 µM, first compound 0.001 µM",83.9%
same,"viability, T/C",[37],80.7%
same,"viability, T/C",[38],90%
same,"viability, T/C",[1],95%
same,"viability, T/C",[2],85.1%
same,"viability, T/C","second compound 0.1 µM, first compound 0.000316 µM",92.7%
same,"viability, T/C","second compound 0.1 µM, first compound 0.001 µM",92.7%
same,"viability, T/C",[39],94%
same,"viability, T/C",[40],104%
same,"viability, T/C",[7],103%
same,"viability, T/C",[8],91.5%
same,"viability, T/C","second compound 0.316 µM, first compound 0.000316 µM",104%
same,"viability, T/C","second compound 0.316 µM, first compound 0.001 µM",101%
same,"viability, T/C",[41],97%
same,"viability, T/C",[42],105%
same,"viability, T/C",[13],75%
same,"viability, T/C",[14],97.6%
same,"viability, T/C","second compound 1 µM, first compound 0.000316 µM",105%
same,"viability, T/C","second compound 1 µM, first compound 0.001 µM",85.8%
same,"viability, T/C",[43],86%
same,"viability, T/C",[44],97.5%
same,"viability, T/C",[19],93.9%
same,"viability, T/C",[20],93.6%
same,"viability, T/C","second compound 3.16 µM, first compound 0.000316 µM",86.2%
same,"viability, T/C","second compound 3.16 µM, first compound 0.001 µM",80.2%
same,"viability, T/C",[45],93.5%
same,"viability, T/C",[46],98%
same,"viability, T/C",[25],111%
same,"viability, T/C",[26],94.2%
same,"viability, T/C","second compound 10 µM, first compound 0.000316 µM",84.8%
same,"viability, T/C","second compound 10 µM, first compound 0.001 µM",82.1%
same,"viability, T/C",[47],98.3%
same,"viability, T/C",[48],92.2%
same,"viability, T/C",[31],93.2%
same,"viability, T/C",[32],61.7%
